For one molecule, K obs results are on record in ChEMBL document CHEMBL1132670, “Combinatorial search of substituted beta-cyclodextrins for phosphatase-like activity” (Bioorg Med Chem Lett, 1999).

The series in a line: Pseudo-first-order rate constant was determined by hydrolysis p-NPP in the presence of Zn 2+ at 37 C. Type of series: ADME.

As to `OC[C@H]1O[C@@H]2O[C@H]3[C@H](O)[C@@H](O)[C@@H](O[C@H]4[C@H](O)[C@@H](O)[C@@H](O[C@H]5[C@H](O)[C@@H](O)[C@@H](O[C@H]6[C@H](O)[C@@H](O)[C@@H](O[C@H]7[C@H](O)[C@@H](O)[C@@H](O[C@H]8[C@H](O)[C@@H](O)[C@@H](O[C@H]1[C@H](O)[C@H]2O)O[C@@H]8CO)O[C@@H]7CO)O[C@@H]6CO)O[C@@H]5CO)O[C@@H]4CO)O[C@@H]3CO` [BETADEX], the K obs is 4.16e-07 s⁻¹.
